{"source": "patent US20230052740A1", "about": "“MODULATORS OF CIRCADIAN RHYTHMS AND USES THEREOF” (The Regents of the University of California, priority 2019, published 2023)", "key": {"[1]": {"target": "T1, MT2 (Homo sapiens, UniProt P49286)", "T1 sequence (P49286 1-362)": "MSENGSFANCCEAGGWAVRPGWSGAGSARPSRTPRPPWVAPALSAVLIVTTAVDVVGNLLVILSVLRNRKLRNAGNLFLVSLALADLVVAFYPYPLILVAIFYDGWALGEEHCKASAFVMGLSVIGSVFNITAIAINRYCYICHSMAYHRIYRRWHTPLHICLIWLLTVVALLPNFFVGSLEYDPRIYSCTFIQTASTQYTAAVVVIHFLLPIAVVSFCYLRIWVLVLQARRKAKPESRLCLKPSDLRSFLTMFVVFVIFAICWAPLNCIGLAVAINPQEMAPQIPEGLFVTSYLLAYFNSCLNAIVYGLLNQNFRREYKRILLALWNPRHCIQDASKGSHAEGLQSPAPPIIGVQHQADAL", "assay": "cAMP assay (GloSensor), isoproterenol-stimulated cAMP in HEK cells", "type": "cell-based", "design": "expressed in transfected cells; host or cells: HEK-T (HEK-293 T) cells, co-transfected with GloSensor DNA; MT2 activity: dose or concentration left out as unconfirmed", "settings": "for MT2 pEC50: Table 2", "procedure": "MT1 and MT2 receptors were tested using Promega's spilt luciferase based GboSensor cAMP biosensor technology. HEK-T cells were plated in 15 cm cell culture dish (at a density of 18 million cells) containing DMEM composed of 10% dialyzed FBS, 2 mM L-glutamine, 100 units/ml penicillin G, 100 μg/ml streptomycin for 4-6 hour. Then, cells were co-transfected with 8 μg of construct which encodes either MT1 or MT2 (de-Tangonized constructs) and […] of Glosensor DNA. […] The next day, cell medium were discarded and loaded with 20 μl of assay buffer (1×HBSS, 20 mM HEPES, pH 7.4, 0.1% BSA). To measure agonist activity of MT1 or MT2 receptor, 10 μl of test compound solution at 3× final concentration was added for 15 minutes followed by addition of 10 μl of luciferin/isoproterenol mixture (at a final concentration of 4 mM and 200 nM respectively) for another 15 mins for luminescence quantification. Then, plates were counted using SpectraMax luminescence reader (Molecular Device). Data were analyzed using GraphPad Prism 6.0."}, "[2]": {"target": "hMT1 (Homo sapiens, UniProt P48039)", "sequence (P48039 whole entry)": "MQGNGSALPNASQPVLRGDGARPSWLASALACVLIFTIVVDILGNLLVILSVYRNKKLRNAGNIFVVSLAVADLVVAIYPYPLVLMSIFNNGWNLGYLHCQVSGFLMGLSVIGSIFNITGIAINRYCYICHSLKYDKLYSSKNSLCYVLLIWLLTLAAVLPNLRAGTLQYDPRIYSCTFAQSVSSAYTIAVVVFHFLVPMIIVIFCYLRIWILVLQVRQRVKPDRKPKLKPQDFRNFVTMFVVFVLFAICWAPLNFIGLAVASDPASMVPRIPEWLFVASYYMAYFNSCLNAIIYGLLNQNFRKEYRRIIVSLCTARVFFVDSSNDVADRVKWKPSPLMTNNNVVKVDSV", "assay": "cAMP assay (GloSensor), isoproterenol-stimulated cAMP in HEK cells", "type": "cell-based", "design": "expressed in transfected cells; host or cells: HEK-T (HEK-293 T) cells, co-transfected with GloSensor DNA", "procedure": "HEK-293 T cells were maintained with complete Dulbecco's modified Eagle's medium (DMEM), which is composed of 10% fetal bovine serum (FBS), 2 mM L-glutamine, 100 units/ml penicillin G, 100 μg/ml streptomycin at 37° C. in the presence of 5% CO2\nMT1 and MT2 receptors were tested using Promega's spilt luciferase based GboSensor cAMP biosensor technology. HEK-T cells were plated in 15 cm cell culture dish (at a density of 18 million cells) containing DMEM composed of 10% dialyzed FBS, 2 mM L-glutamine, 100 units/ml penicillin G, 100 μg/ml streptomycin for 4-6 hour. Then, cells were co-transfected with 8 μg of construct which encodes either MT1 or MT2 (de-Tangonized constructs) and […] of Glosensor DNA. Next day, transfected cells were seeded into poly-L-lysinecoated 384-well white clear bottom cell culture plates with complete DMEM with 1% dialized FBS at a density of 20,000 cells per well for another 24 h. The next day, cell medium were discarded and loaded with 20 μl of assay buffer (1×HBSS, 20 mM HEPES, pH 7.4, 0.1% BSA). To measure agonist activity of MT1 or MT2 receptor, 10 μl of test compound solution at 3× final concentration was added for 15 minutes followed by addition of 10 μl of luciferin/isoproterenol mixture (at a final concentration of 4 mM and 200 nM respectively) for another 15 mins for luminescence quantification. Then, plates were counted using SpectraMax luminescence reader (Molecular Device). Data were analyzed using GraphPad Prism 6.0."}, "[3]": {"settings": "panel of widely-used MTR ligands, in words"}, "[4]": {"settings": "HEK293, Table 2, agonist, normalized to melatonin response, read-out: MT1 % Emax (converted)"}, "[5]": {"settings": "HEK293, Table 2, agonist, normalized to melatonin response, read-out: MT2 % Emax (converted)"}, "[6]": {"settings": "HEK293, Table 1, agonist, normalized to melatonin response, read-out: MT1 % Emax (converted)"}, "[7]": {"settings": "HEK293, Table 1, agonist, normalized to melatonin response, read-out: MT2 % Emax (converted)"}, "[8]": {"settings": "HEK293, Table 6, Inverse (inverse agonist), read-out: MT1 Emax"}, "[9]": {"settings": "Table 6, Inverse (inverse agonist), read-out: MT1 pEC50 (converted)"}}, "note": "Read-outs that look alike come from different tables or passages of the source.", "data": [{"smiles": "COc1ccc2cccc(CCNC(C)=O)c2c1", "note": "[agomelatine, reference compound]", "values": [{"measurement": "type selectivity", "setting": "[1]; [3]", "result": "little type selectivity"}]}, {"smiles": "COC(=O)c1cc(Cn2nc(C)c(N)c2C)c(C)s1", "note": "[ZINC602421874]", "values": [{"measurement": "Emax", "setting": "[2]; [4]", "result": 51, "unit": "%"}, {"measurement": "MT1 pEC50", "setting": "[2]; Table 2, agonist", "result": "4.70 ± 0.11"}, {"measurement": "Emax", "setting": "[1]; [5]", "result": 66, "unit": "%"}, {"measurement": "MT2 pEC50", "setting": "[1]; agonist", "result": "5.35 ± 0.10"}]}, {"smiles": "COC(=O)c1sc(N(C)Cc2ccc(Cl)nc2)nc1Cl", "note": "[ZINC92585174]", "values": [{"measurement": "Emax", "setting": "[2]; [6]", "result": 98, "unit": "%"}, {"measurement": "MT1 pEC50", "setting": "[2]; Table 1, agonist", "result": "7.80 ± 0.17"}, {"measurement": "Emax", "setting": "[1]; [7]", "result": 74, "unit": "%"}]}, {"smiles": "COc1ccc(C2CC2)c(CNc2cccnc2)c1", "values": [{"measurement": "Emax", "setting": "[1]; HEK293, Table 5, read-out: MT2 Emax", "result": "75 ± 5", "unit": "%"}, {"measurement": "EC50", "setting": "[1]; Table 5, MT2 receptor agonists, read-out: MT2 pEC50 (converted)", "result": 1.82, "unit": "nM"}]}, {"smiles": "CC(=O)NCCc1c(Cc2ccccc2)[nH]c2ccccc12", "note": "[Luzindole, reference compound]", "values": [{"measurement": "efficacy at the MT2 receptor", "setting": "[1]; [3]", "result": "partial agonism"}]}, {"smiles": "Cn1c(=O)oc2c(NCc3ccc(-c4cc[nH]n4)o3)cccc21", "note": "[ZINC433313647]", "values": [{"measurement": "Emax", "setting": "[2]; [6]", "result": 42, "unit": "%"}, {"measurement": "MT1 pEC50", "setting": "[2]; Table 1, agonist", "result": "6.81 ± 0.32"}, {"measurement": "Emax", "setting": "[1]; [7]", "result": 96, "unit": "%"}]}, {"smiles": "Cc1cc(=O)n2ccn(CCc3ccc4c(c3)OC(F)(F)O4)c2n1", "note": "[ZINC664088238]", "values": [{"measurement": "Emax", "setting": "[1]; [7]", "result": 75, "unit": "%"}]}, {"smiles": "CCC(=O)NC1CCc2cccc(OC)c2C1", "note": "(centres unmarked) [Compound 8M-PDOT, reference compound]", "values": [{"measurement": "type selectivity", "setting": "[1]; [3]", "result": "little type selectivity"}]}, {"smiles": "CCC(=O)NCC[C@@H]1CCc2ccc3c(c21)CCO3", "note": "[ramelteon, reference compound]", "values": [{"measurement": "type selectivity", "setting": "[1]; [3]", "result": "little type selectivity"}]}, {"smiles": "CN(Cc1ccc2c(c1)OCO2)c1ccnc(Cl)c1", "note": "[ZINC301472854]", "values": [{"measurement": "Emax", "setting": "[2]; [6]", "result": 95, "unit": "%"}, {"measurement": "MT1 pEC50", "setting": "[2]; Table 1, agonist", "result": "6.03 ± 0.10"}, {"measurement": "Emax", "setting": "[1]; [7]", "result": 88, "unit": "%"}]}, {"smiles": "Clc1cc(Br)ccc1CNc1cccc(-c2nnc[nH]2)c1", "note": "[ZINC516666069]", "values": [{"measurement": "Emax", "setting": "[2]; HEK293, Table 2, cell marked Inverse (inverse agonist), read-out: MT1 % Emax (converted)", "result": 42, "unit": "%"}, {"measurement": "MT1 pEC50", "setting": "[2]; Table 2, cell marked Inverse (inverse agonist)", "result": "7.05 ± 0.03"}, {"measurement": "Emax", "setting": "[1]; HEK293, Table 2, cell marked Inverse (inverse agonist), read-out: MT2 % Emax (converted)", "result": 118, "unit": "%"}, {"measurement": "MT2 pEC50", "setting": "[1]; cell marked Inverse (inverse agonist)", "result": "5.58 ± 0.04"}]}, {"smiles": "CN(Cc1ccc2c(c1)OCO2)c1ccnc(Cl)c1", "note": "[ZINC223593565]", "values": [{"measurement": "Emax", "setting": "[2]; [4]", "result": 86, "unit": "%"}, {"measurement": "Emax", "setting": "[1]; [5]", "result": 58, "unit": "%"}]}, {"smiles": "Cc1nc(-c2cccc(NCc3ncc(Cl)cc3Br)c2)n[nH]1", "note": "[Compound Z3668902489]", "values": [{"measurement": "Emax", "setting": "[2]; [8]", "result": 47, "unit": "%"}, {"measurement": "EC50", "setting": "[2]; [9]", "result": 245, "unit": "nM"}]}, {"smiles": "CC(=O)NCCc1c[nH]c2ccccc12", "note": "[N-acetyl tryptamine, reference compound]", "values": [{"measurement": "MT2 selectivity (agonist)", "setting": "[1]; panel of widely-used MTR ligands", "result": 39, "unit": "fold"}]}, {"smiles": "COC(=O)c1cc(Cn2ccn3c(=O)cc(C)nc23)c(C)s1", "note": "[ZINC419113878]", "values": [{"measurement": "Emax", "setting": "[2]; [6]", "result": 84, "unit": "%"}, {"measurement": "MT1 pEC50", "setting": "[2]; Table 1, agonist", "result": "5.20 ± 0.08"}, {"measurement": "EC50", "setting": "[2]; agonist, read-out: EC50 at MT1", "result": "2000 to 6000", "unit": "nM"}, {"measurement": "MT2 activity", "setting": "[1]", "result": "without detectable MT2 activity"}]}, {"smiles": "c1cc(NCc2ccc(C3CCC3)nc2)cc(-c2cc[nH]n2)c1", "note": "[Compound Z3668902476]", "values": [{"measurement": "Emax", "setting": "[2]; [8]", "result": 30, "unit": "%"}, {"measurement": "EC50", "setting": "[2]; [9]", "result": 75.9, "unit": "nM"}]}, {"smiles": "COc1ccc(CN(C(=O)c2scc(C)c2Cl)c2ccncc2)cc1", "note": "[ZINC485552623]", "values": [{"measurement": "MT1 activity", "setting": "[2]; FIG. 7D, in words", "result": "without detectable MT1 activity"}, {"measurement": "Emax", "setting": "[1]; [5]", "result": 107, "unit": "%"}, {"measurement": "MT2 pEC50", "setting": "[1]; agonist", "result": "5.80 ± 0.06"}]}, {"smiles": "COC(=O)c1ccc(I)c(Oc2ccnc(C)n2)c1", "note": "[ZINC432154404]", "values": [{"measurement": "Emax", "setting": "[2]; [6]", "result": 95, "unit": "%"}, {"measurement": "MT1 pEC50", "setting": "[2]; Table 1, agonist", "result": "6.63 ± 0.17"}, {"measurement": "Emax", "setting": "[1]; [7]", "result": 74, "unit": "%"}]}]}
